Laboratory results taken from patent US7205306B2, “Substituted pyrazinones, pyridines and pyrimidines as corticotropin releasing factor ligands” (Bristol-Myers Squibb Pharma Company, priority 2001, dated 2007).

melting point [°C] | SMILES
150 to 152 | CC[C@H](COC)n1cc(Br)nc(N2CCc3cc(Cl)cc(Cl)c32)c1=O [Example 527, 5-Bromo-3-(5,7-dichloro-2,3-dihydro-1H-indol-1-yl)-1-[(1R)-1-(methoxymethyl)propyl]-2(1H)-pyrazinone]
150 to 152 | CC[C@H](COC)n1cc(Br)nc(N2CCc3cc(OC)c(F)c(Cl)c32)c1=O [Example 528, 5-Bromo-3-(7-chloro-6-fluoro-5-methoxy-2,3-dihydro-1H-indol-1-yl)-1-[(1R)-1-(methoxymethyl)propyl]-2(1H)-pyrazinone]
143 to 146 | CC[C@@H](COC)n1cc(Cl)nc(N2CCc3cc(Cl)cc(Cl)c32)c1=O [Example 530, 5-Chloro-3-(5,7-dichloro-2,3-dihydro-1H-indol-1-yl)-1-[(1S)-1-(methoxymethyl)propyl]-2(1H)-pyrazinone]
152 to 154 | CC[C@@H](COC)n1cc(Br)nc(N2CCc3cc(Cl)cc(Cl)c32)c1=O [Example 531, 5-Bromo-3-(5,7-dichloro-2,3-dihydro-1H-indol-1-yl)-1-[(1S)-1-(methoxymethyl)propyl]-2(1H)-pyrazinone]
127 to 128 | CSCCn1cc(Cl)nc(N2CCc3cc(Cl)cc(Cl)c32)c1=O [Example 535, 5-Chloro-3-(5,7-dichloro-2,3-dihydro-1H-indol-1-yl)-1-[2-(methylthio)ethyl]-2(1H)-pyrazinone]
150 | CCC(C)n1cc(Cl)nc(N2CCc3cc(Br)cc(Cl)c32)c1=O (centres unmarked) [Example 538, 3-(5-Bromo-7-chloro-2,3-dihydro-1H-indol-1-yl)-5-chloro-1-methylpropyl-2(1H)-pyrazinone]
136 to 137 | CCc1cn(C(CC)CC)c(=O)c(N2CCc3cc(Cl)cc(Cl)c32)n1 [Example 539, 3-(5,7-Dichloro-2,3-dihydro-1H-indol-1-yl)-5-ethyl-1-(1-ethylpropyl)-2(1H)-pyrazinone]
156 to 157 | CCC(CC)n1cc(Cl)nc(N2CCc3cc(Br)cc(Cl)c32)c1=O [Example 540, 3-(5-Bromo-7-chloro-2,3-dihydro-1H-indol-1-yl)-5-chloro-1-(1-ethylpropyl)-2(1H)-pyrazinone]
197 to 199 | CCC(CC)n1cc(C#N)nc(N2CCc3cc(Cl)cc(Cl)c32)c1=O [Example 541, 6-(5,7-Dichloro-2,3-dihydro-1H-indol-1-yl)-4-(1-ethylpropyl)-4,5-dihydro-5-oxo-2-pyrazinecarbonitrile]
154 to 156 | CC[C@H](C1CC1)n1cc(Cl)nc(N2CCc3cc(Br)cc(Cl)c32)c1=O [Example 542, 3-(5-Bromo-7-chloro-2,3-dihydro-1H-indol-1-yl)-5-chloro-1-[(1R)-1-cyclopropylpropyl]-2(1H)-pyrazinone]
126 to 127 | CC[C@@H](C1CC1)n1cc(Cl)nc(N2CCc3cc(Br)cc(Cl)c32)c1=O [Example 543, 3-(5-Bromo-7-chloro-2,3-dihydro-1H-indol-1-yl)-5-chloro-1-[(1S)-1-cyclopropylpropyl]-2(1H)-pyrazinone]
141 to 142 | CC[C@H](COC)n1cc(Cl)nc(N2CCc3cc(OC)cc(C#N)c32)c1=O [Example 546, 1-[6-Chloro-4-[(1R)-1-(methoxymethyl)propyl]-3,4-dihydro-3-oxopyrazinyl]-5-methoxy-2,3-dihydro-1H-indole-7-carbonitrile]
118 | CC[C@H](COC)n1cc(Br)nc(N2CCc3cc(Br)cc(Cl)c32)c1=O [Example 547, 5-Bromo-3-(5-bromo-7-chloro-2,3-dihydro-1H-indol-1-yl)-1-[(1R)-1-(methoxymethyl)propyl]-2(1H)-pyrazinone]
121 to 122 | CC[C@@H](COC)n1cc(Cl)nc(N2CCc3cc(Br)cc(Cl)c32)c1=O [Example 548, 3-(5-Bromo-7-chloro-2,3-dihydro-1H-indol-1-yl)-5-chloro-1-[(1S)-1-(methoxymethyl)propyl]-2(1H)-pyrazinone]
125 to 126 | CCC(CC)n1cc(Cl)nc(N2CCCc3cc(OC)cc(Br)c32)c1=O [Example 550, 3-(8-Bromo-6-methoxy-1,2,3,4-tetrahydroquinoline)-5-chloro-1-(1-ethylpropyl)-2(1H)-pyrazinone]
127 to 129 | CC[C@H](C1CC1)n1cc(Cl)nc(N2CCCc3cc(OC)cc(Br)c32)c1=O [Example 551, 3-(8-Bromo-6-methoxy-1,2,3,4-tetrahydroquinoline)-5-chloro-1-[(1R)-1-cyclopropylpropyl]-2(1H)-pyrazinone]
118 to 119 | CC[C@@H](C1CC1)n1cc(Cl)nc(N2CCCc3cc(OC)cc(Br)c32)c1=O [Example 552, 3-(8-Bromo-6-methoxy-1,2,3,4-tetrahydroquinoline)-5-chloro-1-[(1S)-1-cyclopropylpropyl]-2(1H)-pyrazinone]
146 | COC[C@@H](C)n1cc(Cl)nc(N2CCCc3cc(OC)cc(Br)c32)c1=O [Example 553, 3-(8-Bromo-6-methoxy-1,2,3,4-tetrahydroquinoline)-5-chloro-1-[(1R)-2-methoxy-1-methylethyl]-2(1H)-pyrazinone]
102 to 103 | CC[C@H](COC)n1cc(Br)nc(N2CCCc3cc(OC)cc(Br)c32)c1=O [Example 554, 5-Bromo-3-(8-bromo-6-methoxy-1,2,3,4-tetrahydroquinoline)-1-[(1R)-1-(methoxymethyl)propyl]-2(1H)-pyrazinone]
93 to 94 | CC[C@@H](COC)n1cc(Cl)nc(N2CCCc3cc(OC)cc(Br)c32)c1=O [Example 555, 3-(8-Bromo-6-methoxy-1,2,3,4-tetrahydroquinoline)-5-chloro-1-[(1S)-1-(methoxymethyl)propyl]-2(1H)-pyrazinone]
